Patent US11286256B2, “Bicyclic inhibitors of histone deacetylase” (Alkermes, Inc., priority 2017, dated 2022)
Read-outs that look alike come from different tables or passages of the source.

Legend:
[1] = molecular target: T1, CYP2D6 (Homo sapiens, UniProt P10635); assay: CYP inhibition assay in human liver microsomes (2D6); format: in vitro ADME; settings: for inhibition at 10 min, 10 µM: human liver microsomes; for inhibition of CYP2D6 (in words): 10 μM
T1 construct: Human liver microsomes were obtained from BD Gentest; tissue BD Gentest; host or cells: human liver microsomes
Description: Compounds were tested to evaluate their inhibitory potential on CYP2D6 and CYP3A4 (midazolam) using human liver microsomes. Human liver microsomes were obtained from BD Gentest, and each compound was run in duplicate.
The test compounds and reference inhibitors (quinidine for 2D6, ketoconazole for 3A4) were plated in a 96-well plate by transferring 8 μL of 10 mM stock solutions of compound in DMSO to 12 μL of acetonitrile. Individual inhibitor spiking solutions were prepared for CYP2D6 and CYP3A4 (8 μL of DMSO stock added to 12 μL of acetonitrile). Next added 400 μL of 0.2 mg/mL HLM to the assay wells and then added 2 μL of 400× test compound into the designated wells on ice. Next, added 200 μL of 0.2 mg/mL HLM to the assay wells and then added 1 μL of reference inhibitor solutions into the designated wells. The following solutions were added (in duplicate) to a 96-well assay plate on ice: The test compounds and reference inhibitors (quinidine for 2D6, ketoconazole for 3A4) were tested using the following experimental procedure:
10. Incubate the assay plate at 37° C. 5 min for 3A4, 10 min for 2D6.
11. Stop the reaction by adding 120 μL of ACN containing Internal Standard. For CYP3A4, the internal standard is 1′OH-midazolam-D4 (10 μM solution diluted to a final concentration of 0.1 μM by adding 100 μL internal standard stock to 10 mL ACN). For CYP2D6, the internal standard is 1-OH-Bufuralol-maleate-[D9] (49 μM solution diluted to a final concentration of 0.1 μM by adding 20 μL internal standard stock to 10 mL ACN).
The assessment on CYP isoform inhibition is as follows based on the assay results: if percentage of CYP inhibition is higher than 50%, indicates potent inhibition; if percentage of CYP inhibition is between 30-50%, indicates […]; if percentage of CYP inhibition is less than 30%, indicates slight or no inhibition. If the percentage of CYP inhibition is less than −30%, this indicates the compound may have some kind of activation of this isoform.

[2] = Brain and plasma exposure following IV and PO administration to mice; format: in vivo; settings: for Mouse IV-PO (1/10 mpk): F: IV 1 mpk / PO 10 mpk; for clearance / half-life: plasma
Description: Compounds were dosed in mice at either 10 mg/kg or 30 mg/kg PO, and were dosed at 1 mg/kg IV. Three animals for collection at each time point for plasma via bleeding at 0.25, 0.5, 1, 4, 12 and 24 h. Terminal bleeding for plasma and sampling for brain at 0.25, 0.5, 1, 4, 12 and 24 h (also three animals per brain exposure time point group). Total of six time points for plasma and six time points for brain.
Plasma: The animal was restrained manually at the designated time points, approximately 150 μL blood/time point was collected into K2EDTA tube via retro orbital puncture or cardiac puncture under anesthesia with Isoflurane. The blood sample was centrifuged (2000 g, 4° C., 5 min) to generate plasma within 30 min after bleeding.
Brain: At the designated time points, a mid-line incision was made in the animals scalp and the skin was retracted. Using small bone cutters and rongeurs, removed the skull overlying the brain. Removed the brain using a spatula and rinse with cold saline. Placed the brain in screw-top tubes, and then stored the tubes under −70° C. until analysis.

[3] = tested on: dendritic spines of CA1 pyramidal neurons, dorsal hippocampus; assay: Dendritic spine morphology in dorsal hippocampus (CA1) after 14 days of oral treatment; format: in vivo, wild type mice (C57BL/6J); settings: for Thin Spines (% increase over vehicle) / Total Spines (% increase over vehicle): 14 days, WT mice; for dendritic spine density (in words, earlier studies): Compound 2 at 1, 3, 6 and 20 mg/kg/day, Compound 1 at 10 mg/kg/day
Description: Compounds were evaluated to determine whether sub-chronic treatment could produce changes in dendritic spine morphology in the CA1 region of the dorsal hippocampus in wild type (WT) mice. Compounds were administered orally to wild type mice, daily for 14 days. Doses were chosen based on pharmacokinetic data, brain exposure, and potency. Effects of compounds treatments on dendritic spine morphology in the CA1 region of the dorsal hippocampus were then evaluated.
Male C57BL/6J mice (7-8-weeks old, n=7 per group) were dosed orally with Rodin compounds or vehicle (20% HPßCD) daily for 14 days. Doses for compounds were chosen based on exposure data from pharmacokinetic experiments. […] Mice were sacrificed 24 hours after the last dose, and underwent transcardial perfusion for preparation of brain samples.
Mice were anesthetized with chloral hydrate (4% chloral hydrate in saline, 10 ml/kg) before undergoing transcardial perfusion with 4% PFA in 1×PBS (pH7.4, room temperature) at 20 mL/min for 54 seconds. Immediately after the perfusion, mice were decapitated and their brain extracted. Brains were postfixed in scintillation vials containing 4% PFA (5-10 ml) for 4 min. Brains were sectioned using a tissue vibratome (Leica VT1000) to collect sections (300 μm thick) from the anterior to posterior extremes of each brain.
Superresolution laser-scanning confocal microscopy (Zeiss LSM880, Airyscan) was performed using a 63× objective (1.42 NA) to scan individually labeled neurons at high resolution (scan resolution=0.06 um μm/pixel; axial resolution=0.06 um μm/focal step). Target neurons were identified in the brain region of interest by epifluorescence navigation using anatomical location and cell morphology. Microscopy was performed blind to experimental conditions. A minimum of 7 mice were tested in each experimental condition. A minimum of 5 samples per mouse (range=5-6) were measured for each segment.
Blind deconvolution (AutoQuant) was applied to raw three-dimensional digital images which were then analyzed for spine density and morphology by trained analysts. Individual spines were measured manually for (a) head diameter, (b) length, and (c) neck thickness from image Z-stacks using custom-built Afraxis ESP software. Each dendrite was analyzed by 3 (on average) independent analysts. Automated image assignment software distributed images to analysts in a randomized manner and ensured that each analyst performed measurements of near equal numbers of dendrites per group. Analysts were blinded to all experimental conditions (including treatment, brain region, and cell type).
Each identified dendritic spine was measured for (a) spine length, (b) spine head diameter, and (c) neck width. Population distributions of each measure were compiled for each dendritic sample and pooled by group. Raw dendritic spine morphometric values (spine length, head diameter, neck width) were assembled into a scheme used to describe classic spine phenotypes (e.g. mushroom, stubby, etc.). Total spine density was also reported as the sum of the density of all subclasses.
General Observations. […] For adequate study to study comparisons, total spine density data were normalized to % vehicle levels
[formula] Data were then reported as mean+/−SEM of total spine density (% increase from Vehicle).

T1 sequence (P10635 whole entry): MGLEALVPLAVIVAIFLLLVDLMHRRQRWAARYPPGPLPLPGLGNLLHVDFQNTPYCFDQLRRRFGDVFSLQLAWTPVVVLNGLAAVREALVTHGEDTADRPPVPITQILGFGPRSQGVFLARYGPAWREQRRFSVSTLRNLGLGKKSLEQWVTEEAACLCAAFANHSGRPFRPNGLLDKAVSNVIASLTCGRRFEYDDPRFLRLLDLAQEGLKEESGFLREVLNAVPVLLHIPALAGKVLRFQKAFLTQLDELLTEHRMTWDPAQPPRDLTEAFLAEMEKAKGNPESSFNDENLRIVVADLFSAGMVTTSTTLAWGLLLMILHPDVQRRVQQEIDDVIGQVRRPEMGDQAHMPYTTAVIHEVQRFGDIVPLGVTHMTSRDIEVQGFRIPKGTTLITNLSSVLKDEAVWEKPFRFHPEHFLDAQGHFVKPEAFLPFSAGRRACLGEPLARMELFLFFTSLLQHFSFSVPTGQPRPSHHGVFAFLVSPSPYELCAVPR

SMILES: Nc1ccc(-c2ccc(F)cc2)cc1NC(=O)N1Cc2nccnc2C1 [Comparator A]
- inhibition at 10 min, 10 µM [1]: 34%

SMILES: Nc1ccc(-c2ccc(F)cc2)nc1NC(=O)N1Cc2nccnc2C1 [Comparator B]
- inhibition at 10 min, 10 µM [1]: 9%

SMILES: Nc1ccc(-c2cccs2)nc1NC(=O)N1Cc2nccnc2C1 [Comparator C]
- inhibition at 10 min, 10 µM [1]: 0.2%

SMILES: Nc1ccc(-c2ccc(F)cc2)nc1NC(=O)N1Cc2cncnc2C1 [Comparator D]
- inhibition of CYP2D6 (in words) [1]: significant inhibition
- inhibition at 10 min, 10 µM [1]: 85%
- Projected Brain Cmax @ 10 mpk (*scaled for comparison) ([2]; mouse, brain, scaled to 10 mpk for comparison): 158* ng/g

SMILES: Nc1ccc(-c2cccs2)nc1NC(=O)N1Cc2cncnc2C1 [Comparator E]
- inhibition of CYP2D6 (in words) [1]: significant inhibition
- inhibition at 10 min, 10 µM [1]: 50%
- Mouse IV-PO (1/10 mpk): F [2]: 49%
- Mouse PO (10 mpk): Brain Cmax ([2]; brain): 100 ng/g
- Mouse PO (10 mpk): Free brain Cmax ([2]; free brain): 35 ng/g

SMILES: COCc1cc2c(cn1)CN(C(=O)Nc1nc(-c3ccc(F)cc3F)ccc1N)C2 [Compound 1]
- Thin Spines (% increase over vehicle) ([3]; 0.1 mg/kg PO daily): 13.8%
- Total Spines (% increase over vehicle) ([3]; 0.1 mg/kg PO daily): 12.2%
- Thin Spines (% increase over vehicle) ([3]; 0.3 mg/kg PO daily): 23.2%
- Total Spines (% increase over vehicle) ([3]; 0.3 mg/kg PO daily): 21.3%
- Thin Spines (% increase over vehicle) ([3]; 1 mg/kg PO daily): 45.1%
- Total Spines (% increase over vehicle) ([3]; 1 mg/kg PO daily): 34.6%
- Thin Spines (% increase over vehicle) ([3]; 3 mg/kg PO daily): 25.3%
- Total Spines (% increase over vehicle) ([3]; 3 mg/kg PO daily): 26.7%
- Thin Spines (% increase over vehicle) ([3]; 10 mg/kg PO daily): 19.9%
- Total Spines (% increase over vehicle) ([3]; 10 mg/kg PO daily): 25.1%
- dendritic spine density (in words, earlier studies) [3]: increases in dendritic spine density
- inhibition at 10 min, 10 µM [1]: -1%
- Projected Brain Cmax @ 10 mpk ([2]; mouse, 10 mpk, brain): 2460 ng/g
- Projected free brain @ 10 mpk ([2]; mouse, 10 mpk, free brain): 1.04 µM
- clearance ([2]; 1 mg/kg, mouse, IV, read-out: IV PK Cl (converted)): 11.4 mL/min/kg
- half-life ([2]; 1 mg/kg, mouse, IV, read-out: IV PK T ½ (converted)): 2.13 h
- half-life ([2]; 10 mpk, mouse, PO, read-out: PK T ½ PO (converted)): 1.97 h

SMILES: Cc1ncc2c(n1)CN(C(=O)Nc1nc(-c3cccs3)ccc1N)C2 [Compound 2]
- Thin Spines (% increase over vehicle) ([3]; 0.1 mg/kg PO daily): 11.3%
- Total Spines (% increase over vehicle) ([3]; 0.1 mg/kg PO daily): 8.1%
- Thin Spines (% increase over vehicle) ([3]; 1 mg/kg PO daily): 21.2%
- Total Spines (% increase over vehicle) ([3]; 1 mg/kg PO daily): 21.4%
- Thin Spines (% increase over vehicle) ([3]; 3 mg/kg PO daily): 32.2%
- Total Spines (% increase over vehicle) ([3]; 3 mg/kg PO daily): 24.7%
- Thin Spines (% increase over vehicle) ([3]; 6 mg/kg PO daily): 35.4%
- Total Spines (% increase over vehicle) ([3]; 6 mg/kg PO daily): 15%
- Thin Spines (% increase over vehicle) ([3]; 20 mg/kg PO daily): 37.4%
- Total Spines (% increase over vehicle) ([3]; 20 mg/kg PO daily): −0.12%
- dendritic spine density (in words, earlier studies) [3]: increases in dendritic spine density
- inhibition of CYP2D6 (in words) [1]: no significant inhibition
- inhibition at 10 min, 10 µM [1]: -5%
- Mouse IV-PO (1/10 mpk): F [2]: 100%
- Mouse PO (10 mpk): Brain Cmax ([2]; brain): 583 ng/g
- Mouse PO (10 mpk): Free brain Cmax ([2]; free brain): 173 ng/g
- higher brain exposure over the unsubstituted pyrimidine analog ([2]; mouse, relative to Comparator E): > 5 fold
- clearance ([2]; 1 mg/kg, mouse, IV 1 mpk, read-out: Mouse IV (1 mpk): Cl (converted)): 69.7 mL/min/kg
- half-life ([2]; 1 mg/kg, mouse, IV 1 mpk, read-out: Mouse IV (1 mpk): T1/2 (converted)): 0.839 h
- half-life ([2]; 10 mpk, mouse, PO, read-out: Mouse PO (1/10 mpk): T1/2 (converted)): 1.05 h
